Test results published in PMC12340956, “Tranylcypromine-Based LSD1 Inhibitors as Useful Agents to Reduce Viability of” (ACS Infectious Diseases, 2025).
Structures can show the parent of a compound that is named as a salt. Where two headings read alike, the source gives them in different places.

Key:
[1] = system: human recombinant LSD1-CoREST enzymatic complex; conditions: Table S1, cited from earlier work
[2] = system: newly transformed schistosomula (NTS); experiment: NTS viability phenotypic screening, 72 h; conditions: for IC50: Schistosoma mansoni, read-out: IC50 (NTS viability)
adult worms = experiment: Adult worm viability phenotypic assay, 72 h; conditions: Schistosoma mansoni, read-out: IC50 (adult worm viability)
[3] = molecular target: T1, human LSD1-CoREST complex (Homo sapiens, UniProt O60341); experiment: ThermoFAD thermal stability assay; type: binding; conditions: LSD1-CoREST thermal stability
T1 construct: made in house
Method: Compounds 14–22 were tested against the human LSD1-CoREST complex to determine their inhibitory activity. […] ThermoFAD assays were then performed to assess the impact of 14–22 on the thermal stability (ΔT m values, Table ) of the LSD1-CoREST complex. The most significant shifts in Tm values corresponded to the strongest binders. […] Compound 22 was not tested, considering its previous negative results.
Protein expression, thermal stability, and inhibition of human LSD1-CoREST were performed using established protocols. […] LSD1-CoREST (0.4 μM) was preincubated with the inhibitor at 25 °C for 10 min in the presence of 5% DMSO. The reaction was initiated by adding an equal volume of the substrate solution to the enzyme–inhibitor mixture, and resorufin fluorescence (excitation at 530–570 nm and emission at 580–590 nm) was detected with a Clariostar plate reader.

[4] = molecular target: T1, human LSD1-CoREST complex; experiment: HRP-coupled LSD1 inhibition assay; type: biochemical; conditions: 10 min preincubation, read-out: IC50 (hLSD1 direct inhibition)
Method: Protein expression, thermal stability, and inhibition of human LSD1-CoREST were performed using established protocols. […] The reaction was initiated by adding an equal volume of the substrate solution to the enzyme–inhibitor mixture, and resorufin fluorescence (excitation at 530–570 nm and emission at 580–590 nm) was detected with a Clariostar plate reader.

[5] = ref 2 (SI: Fioravanti et al., ChemMedChem 2020)
[6] = ref 4 (SI: Rodriguez et al., MedChemComm 2015)

NC1CC1c1ccc(NC(=O)Cc2cccc3ccccc23)cc1 (stereo not shown) [Compound 8]
Percentage of reduction of NTS viability, 72 h ([2]; 10 μM): 46.5 ± 2.6%
Percentage of reduction of NTS viability, 72 h ([2]; 20 μM): 50.0 ± 0.0%
IC50 [2]: > 10 µM

NC1CC1c1ccc(NC(=O)CNC(=O)OCc2ccccc2)cc1 (stereo not shown) [Compound 9]
IC50 [1, 6]: 0.3 ± 0.03 µM
Percentage of reduction of NTS viability, 72 h ([2]; 10 μM): 37.93 ± 1.7%
Percentage of reduction of NTS viability, 72 h ([2]; 20 μM): 41.7 ± 4.2%
IC50 [2]: > 20 µM

NC1CC1c1ccc(NC(=O)C2CCCN2C(=O)OCc2ccccc2)cc1 (stereo not shown) [Compound 10]
IC50 [1, 6]: 0.06 ± 0.01 µM
Percentage of reduction of NTS viability, 72 h ([2]; 10 μM): 32.8 ± 0.9%
Percentage of reduction of NTS viability, 72 h ([2]; 20 μM): 37.5 ± 4.2%
IC50 [2]: > 20 µM

NC1CC1c1ccc(NC(=O)C(Cc2ccccc2)NC(=O)OCc2ccccc2)cc1 (stereo not shown) [Compound 11, benzyl (1-((4-(2-aminocyclopropyl)phenyl)amino)-1-oxo-3-phenylpropan-2-yl)carbamate]
IC50 (adult worms): > 20 µM

NC1CC1c1ccc(NC(=O)C(Cc2c[nH]c3ccccc23)NC(=O)OCc2ccccc2)cc1 (stereo not shown) [Compound 12]
IC50 [1, 5]: 0.19 ± 0.03 µM
Percentage of reduction of NTS viability, 72 h ([2]; 10 μM): 41.4 ± 1.7%
Percentage of reduction of NTS viability, 72 h ([2]; 20 μM): 50.0 ± 0.0%
IC50 [2]: > 10 µM

NC1CC1c1ccc(NC(=O)C(Cc2csc3ccccc23)NC(=O)OCc2ccccc2)cc1 (stereo not shown) [Compound 13]
IC50 [1, 5]: 0.08 ± 0.01 µM
Percentage of reduction of NTS viability, 72 h ([2]; 10 μM): 36.2 ± 0.9%
Percentage of reduction of NTS viability, 72 h ([2]; 20 μM): 50.0 ± 4.2%
IC50 [2]: > 10 µM

Cc1ccc(C(=O)Nc2ccc(C3CC3N)cc2)cc1.Cl (stereo not shown) [Compound 14, N-(4-(2-Aminocyclopropyl)phenyl)-4-methylbenzamide Hydrochloride]
ΔTm [3]: +8 °C
Percentage of reduction of NTS viability, 72 h ([2]; 10 μM): 22.9 ± 2.1%
Percentage of reduction of NTS viability, 72 h ([2]; 20 μM): 41.7 ± 4.2%
IC50 [2]: > 20 µM
IC50 [4]: 0.15 ± 0.02 µM

N#Cc1ccc(C(=O)Nc2ccc(C3CC3N)cc2)cc1 (stereo not shown) [Compound 17, N-(4-(2-Aminocyclopropyl)phenyl)-4-cyanobenzamide Hydrochloride]
ΔTm [3]: +8.5 °C
Percentage of reduction of NTS viability, 72 h ([2]; 10 μM): 25.0 ± 0.0%
Percentage of reduction of NTS viability, 72 h ([2]; 20 μM): 31.2 ± 6.3%
IC50 [2]: > 20 µM
IC50 [4]: 0.15 ± 0.02 µM
